From PMC13233820, “Recruitment of Mre11 to recombination sites during meiosis” (Nature Communications, 2026)

Columns and labels:
[1] = test system: Mer2 condensates; assay: Colocalization of fluorescently-labeled Mer2 and Mre11 condensates; format: binding, Saccharomyces cerevisiae; conditions: condensates assembled separately on DNA then incubated together
Procedure: Fig. 4 Mer2 recruits Mre11 during meiosis. a Effect of 1,6-hexanediol treatment on meiotic Mre11^myc foci visualized by immunofluorescence analysis of yeast nuclear spreads 4 hours after transfer to SPM. […] At least 22 tetrads were dissected for each strain (n ≥ 88 spores). e Quantification of sub-population of cells showing discrete Mre11 foci and aggregated Mre11 foci in indicated strains. Images used for analysis were from the same experiments in (b) and (d). f Colocalization of fluorescently-labeled Mer2 with wild-type or truncated Mre11. […] The number of images analyzed for each sample were WT (n = 11), Mre11^Δ10-270 (n = 13), Mre11^Δ290-472 (n = 15), Mre11^ΔIDR (n = 10), Mre11^ΔC49 (n = 13). Error bars represent mean ± SD from the indicated (n) fields of view. p-values compared to Mre11-WT are: Mre11^Δ10-270 (0.006), Mre11^Δ290-472 (0.0003), Mre11^ΔIDR (<0.0001), Mre11^ΔC49 (<0.0001). g Colocalization of fluorescently-labeled Mre11-C49 and Mer2. Condensates were assembled by mixing 800 nM of ^mScarletMre11-C49 and 200 nM of ^eGFPMer2 for 30 min prior to imaging. […]
Proteins were diluted to a 10 × stock of their appropriate working concentrations in their respective storage buffers. […] Images were analyzed with ImageJ using a custom-made script. […] Masked foci were counted, and the intensity inside the focus mask was integrated. […] Data were analyzed using Graphpad Prism 10.4.0.

[2] = test system: pUC19 plasmid substrate; assay: Gel shift assay, plasmid DNA binding; conditions: 1 nM pUC19; reduced-mobility complexes (supershift) at higher concentration
Procedure: Proteins were diluted to their appropriate working concentrations in their respective storage buffers. […] Reactions were assembled at 30 °C for 30 mins and resolved in a 1% agarose (SeaKem LE Agarose, Lonza) at 60 V for 120 mins at 4 °C. Gels were stained with SYBR Gold Nucleic Acid Gel Stain (S11497, Invitrogen) for 40 mins and visualized with Amersham Typhoon biomolecular imager (Cytiva).

[3] = test system: supercoiled pUC19 plasmid DNA; assay: In vitro condensation assay of Mre11 (fluorescence microscopy); format: biochemical
Procedure: Fig. 1 Mre11 and the MRX complex assemble DNA-dependent condensates in vitro. a, c Effect of the presence of plasmid DNA on condensation of (a) Alexa488-labeled Mre11 (n = 11 and 9 fields of view for reactions without and with DNA, respectively) and (c) eGFP-tagged MRX (n = 11 (- DNA) and 9 ( + DNA)). Experiments were performed without PEG. b, d Effect of DNase I, in the absence of PEG, on (b) Mre11 (n = 9 (no treatment) and 11 (DNase I)) and (d) MRX (n = 9 (no treatment) and 11 (DNase I)) condensates. Condensates were pre-assembled for 20 min with 5.7 nM pUC19 prior to challenge. Quantification represents total foci intensity (green) in a field of view and total number of foci per 1000 µm^2 (magenta). Foci intensity is normalized to the mean intensity of samples with DNA for (a, c) and untreated samples for (b, d). […] Quantification represents total foci intensity (green) in a field of view (normalized to the mean of + PEG images) and total number of foci per 1000 µm^2 (magenta). […]
Fig. 2 The C-terminal IDR of Mre11 is required for condensation. a AlphaFold2 predicted model of Mre11 (AF-P32829-F1-v4). […] Quantification represents total fluorescence intensity (green) in a field of view and total number of foci per 1000 µm^2 (magenta). […]

## Mre11: full-length yeast Mre11 nuclease, recombinant from Sf9 cells
[1]
  Colocalization with Mer2 condensates (in words): nearly absolute colocalization
[2]
  Protein concentration up to which fast-migrating complexes form: ~25 nM
[3]; in the presence of plasmid DNA
  Condensate formation (in words): form large clusters visible by fluorescence microscopy
[3]; protein titration, plasmid DNA, 5% PEG
  Protein concentration above which foci intensity steeply increases: above 200 nM
